According to patent publication US12258327B2, “5-membered heteroaryl-containing aminopyridine compounds as EGFR inhibitors” (YUHAN CORPORATION, priority 2021, dated 2025):
Read-outs that look alike come from different tables or passages of the source.

Experiments:
EGFR L858R/T790M/C797S = EGFR L858R/T790M/C797S (Homo sapiens, UniProt P00533, C797S/L858R/T790M); assay: Biochemical EGFR kinase assay (Lance Ultra TR-FRET), triple mutant L858R/T790M/C797S
Summary of the method: (§1)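 Step 1: compound in kinase buffer, 0.003–10 μM. Step 2: kinase reaction 1 h at room temperature. Step 4: TR-FRET read at 615/665 nm; IC50 calculated.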

EGFR del19/C797S = EGFR del19/C797S (Homo sapiens, UniProt P00533, C797S/DEL746-750); assay: Biochemical EGFR kinase assay (Lance Ultra TR-FRET), double mutant del19/C797S
Chain of EGFR del19/C797S (P00533 with tags, fused parts or gaps DEL746-750/C797S): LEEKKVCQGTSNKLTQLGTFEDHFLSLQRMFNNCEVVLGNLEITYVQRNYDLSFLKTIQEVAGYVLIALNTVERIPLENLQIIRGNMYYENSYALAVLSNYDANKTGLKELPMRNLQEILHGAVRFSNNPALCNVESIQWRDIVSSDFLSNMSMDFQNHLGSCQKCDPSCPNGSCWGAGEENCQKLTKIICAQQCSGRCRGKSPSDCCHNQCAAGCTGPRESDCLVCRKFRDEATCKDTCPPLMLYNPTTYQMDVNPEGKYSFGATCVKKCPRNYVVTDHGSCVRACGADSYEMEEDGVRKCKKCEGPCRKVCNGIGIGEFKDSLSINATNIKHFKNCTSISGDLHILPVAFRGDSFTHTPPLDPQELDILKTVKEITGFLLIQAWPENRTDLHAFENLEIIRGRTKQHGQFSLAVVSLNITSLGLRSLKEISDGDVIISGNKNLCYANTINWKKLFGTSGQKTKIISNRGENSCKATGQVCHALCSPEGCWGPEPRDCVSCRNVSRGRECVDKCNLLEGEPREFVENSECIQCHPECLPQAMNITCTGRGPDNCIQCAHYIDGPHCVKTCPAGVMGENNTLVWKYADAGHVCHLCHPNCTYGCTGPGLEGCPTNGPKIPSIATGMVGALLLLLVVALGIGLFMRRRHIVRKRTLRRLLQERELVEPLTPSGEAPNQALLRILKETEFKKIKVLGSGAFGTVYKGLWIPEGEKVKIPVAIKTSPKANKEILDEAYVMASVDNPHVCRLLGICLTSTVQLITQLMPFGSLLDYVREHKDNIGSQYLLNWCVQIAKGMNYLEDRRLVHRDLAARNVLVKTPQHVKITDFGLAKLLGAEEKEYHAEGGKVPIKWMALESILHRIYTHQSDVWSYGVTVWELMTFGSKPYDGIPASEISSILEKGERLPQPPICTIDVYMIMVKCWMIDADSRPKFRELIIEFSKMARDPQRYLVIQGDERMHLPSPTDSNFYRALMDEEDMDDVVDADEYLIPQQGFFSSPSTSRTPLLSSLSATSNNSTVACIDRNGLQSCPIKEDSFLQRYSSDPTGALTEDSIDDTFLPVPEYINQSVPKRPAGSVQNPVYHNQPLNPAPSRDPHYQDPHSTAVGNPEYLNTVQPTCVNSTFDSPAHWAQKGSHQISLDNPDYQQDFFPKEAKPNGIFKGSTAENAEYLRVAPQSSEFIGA
Summary of the method: as §1

EGFR del19/T790M/C797S = EGFR del19/T790M/C797S (Homo sapiens, UniProt P00533, C797S/DEL746-750/T790M); assay: Biochemical EGFR kinase assay (Lance Ultra TR-FRET), triple mutant del19/T790M/C797S
Chain of EGFR del19/T790M/C797S (P00533 with tags, fused parts or gaps DEL746-750/T790M/C797S): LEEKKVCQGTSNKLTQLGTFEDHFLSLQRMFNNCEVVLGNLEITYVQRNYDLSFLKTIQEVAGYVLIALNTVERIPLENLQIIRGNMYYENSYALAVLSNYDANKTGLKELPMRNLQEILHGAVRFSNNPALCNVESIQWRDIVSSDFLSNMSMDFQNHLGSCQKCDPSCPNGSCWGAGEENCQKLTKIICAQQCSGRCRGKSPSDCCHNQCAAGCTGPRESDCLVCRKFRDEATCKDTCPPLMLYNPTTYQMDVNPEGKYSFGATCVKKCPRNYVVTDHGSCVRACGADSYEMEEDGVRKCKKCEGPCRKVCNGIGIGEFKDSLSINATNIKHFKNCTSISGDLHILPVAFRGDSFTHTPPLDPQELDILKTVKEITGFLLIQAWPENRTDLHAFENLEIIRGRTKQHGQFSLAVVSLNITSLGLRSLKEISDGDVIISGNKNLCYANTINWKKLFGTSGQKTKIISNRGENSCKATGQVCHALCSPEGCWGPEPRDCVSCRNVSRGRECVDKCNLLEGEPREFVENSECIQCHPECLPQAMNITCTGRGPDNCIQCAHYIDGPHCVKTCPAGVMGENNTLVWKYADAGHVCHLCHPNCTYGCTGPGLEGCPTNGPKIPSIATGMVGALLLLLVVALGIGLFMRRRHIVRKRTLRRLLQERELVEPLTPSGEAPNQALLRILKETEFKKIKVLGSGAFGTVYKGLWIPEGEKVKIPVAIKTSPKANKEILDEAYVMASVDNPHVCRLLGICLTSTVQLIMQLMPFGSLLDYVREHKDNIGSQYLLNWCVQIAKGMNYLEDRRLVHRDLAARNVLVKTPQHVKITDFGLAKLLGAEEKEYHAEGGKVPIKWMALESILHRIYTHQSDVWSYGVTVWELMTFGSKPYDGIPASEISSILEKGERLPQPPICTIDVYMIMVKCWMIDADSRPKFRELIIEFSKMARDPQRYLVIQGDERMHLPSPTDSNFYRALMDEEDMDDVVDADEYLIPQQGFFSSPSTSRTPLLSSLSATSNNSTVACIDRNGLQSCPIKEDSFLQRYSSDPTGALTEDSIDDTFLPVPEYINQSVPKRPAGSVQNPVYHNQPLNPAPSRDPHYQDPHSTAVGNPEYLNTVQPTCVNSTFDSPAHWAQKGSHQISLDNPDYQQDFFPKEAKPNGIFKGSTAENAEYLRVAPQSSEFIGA
Summary of the method: as §1

EGFR wildtype (WT) = EGFR wildtype (WT) (Homo sapiens, UniProt P00533); assay: Biochemical EGFR kinase assay (Lance Ultra TR-FRET), wildtype
Summary of the method: as §1

EGFR L858R/C797S = EGFR L858R/C797S (Homo sapiens, UniProt P00533, C797S/L858R); assay: Biochemical EGFR kinase assay (Lance Ultra TR-FRET), double mutant L858R/C797S
Chain of EGFR L858R/C797S (P00533 25-1210 C797S/L858R): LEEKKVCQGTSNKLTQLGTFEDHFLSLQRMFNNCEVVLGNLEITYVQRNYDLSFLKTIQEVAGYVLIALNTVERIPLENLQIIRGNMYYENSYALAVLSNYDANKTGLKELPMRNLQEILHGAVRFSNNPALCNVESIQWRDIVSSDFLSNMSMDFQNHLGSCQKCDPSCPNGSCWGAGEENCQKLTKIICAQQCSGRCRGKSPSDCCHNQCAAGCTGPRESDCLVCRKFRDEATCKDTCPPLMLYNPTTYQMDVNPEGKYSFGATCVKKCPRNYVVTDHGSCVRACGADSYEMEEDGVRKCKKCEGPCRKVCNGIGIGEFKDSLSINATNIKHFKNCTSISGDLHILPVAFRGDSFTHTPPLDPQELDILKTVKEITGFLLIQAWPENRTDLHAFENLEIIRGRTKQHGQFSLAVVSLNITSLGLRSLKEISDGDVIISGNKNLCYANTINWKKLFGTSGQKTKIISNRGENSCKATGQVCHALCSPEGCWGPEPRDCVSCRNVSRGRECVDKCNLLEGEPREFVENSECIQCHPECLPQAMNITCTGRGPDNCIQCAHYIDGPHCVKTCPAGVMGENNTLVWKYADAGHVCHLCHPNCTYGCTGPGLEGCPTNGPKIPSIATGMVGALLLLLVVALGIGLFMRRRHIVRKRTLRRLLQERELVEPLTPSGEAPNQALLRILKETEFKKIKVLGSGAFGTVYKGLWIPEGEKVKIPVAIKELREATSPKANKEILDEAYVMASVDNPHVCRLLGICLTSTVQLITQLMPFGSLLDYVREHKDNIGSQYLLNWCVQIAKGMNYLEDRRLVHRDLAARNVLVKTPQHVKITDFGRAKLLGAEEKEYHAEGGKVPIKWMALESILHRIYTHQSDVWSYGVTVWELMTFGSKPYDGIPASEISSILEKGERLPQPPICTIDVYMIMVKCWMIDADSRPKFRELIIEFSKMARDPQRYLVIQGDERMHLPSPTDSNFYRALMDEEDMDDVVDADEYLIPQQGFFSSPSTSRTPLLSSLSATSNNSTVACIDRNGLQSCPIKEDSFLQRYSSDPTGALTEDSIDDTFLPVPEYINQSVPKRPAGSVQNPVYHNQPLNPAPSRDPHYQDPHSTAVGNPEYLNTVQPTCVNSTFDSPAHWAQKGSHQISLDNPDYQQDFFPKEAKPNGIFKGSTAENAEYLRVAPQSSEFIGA
Summary of the method: as §1

[1] = IC50 L858R/T790M/C797S (nM) 100 μM ATP, 100 μM ATP
[2] = Km ATP, read-out: IC50 L858R/T790M/C797S (nM) Km ATP
[3] = IC50 del19/C797S (nM) 100 μM ATP, 100 μM ATP
[4] = Km ATP, read-out: IC50 del19/C797S (nM) Km ATP
[5] = IC50 del19/T790M/C797S (nM) 100 μM ATP, 100 μM ATP
[6] = Km ATP, read-out: IC50 del19/T790M/C797S (nM) Km ATP
[7] = IC50 WT (nM) 100 μM ATP, 100 μM ATP
[8] = Km ATP, read-out: IC50 WT (nM) Km ATP
[9] = IC50 L858R/C797S (nM) 100 μM ATP, 100 μM ATP
[10] = Km ATP, read-out: IC50 L858R/C797S (nM) Km ATP
[11] = Km ATP, read-out: IC50 L858R/T790M/C797S, Km ATP
[12] = Km ATP, read-out: IC50 del19/C797S, Km ATP
[13] = Km ATP, read-out: IC50 del19/T790M/C797S, Km ATP
[14] = Km ATP, read-out: IC50 WT, Km ATP
[15] = Km ATP, read-out: IC50 L858R/C797S, Km ATP

Chain of EGFR L858R/T790M/C797S (P00533 25-1210 T790M/C797S/L858R): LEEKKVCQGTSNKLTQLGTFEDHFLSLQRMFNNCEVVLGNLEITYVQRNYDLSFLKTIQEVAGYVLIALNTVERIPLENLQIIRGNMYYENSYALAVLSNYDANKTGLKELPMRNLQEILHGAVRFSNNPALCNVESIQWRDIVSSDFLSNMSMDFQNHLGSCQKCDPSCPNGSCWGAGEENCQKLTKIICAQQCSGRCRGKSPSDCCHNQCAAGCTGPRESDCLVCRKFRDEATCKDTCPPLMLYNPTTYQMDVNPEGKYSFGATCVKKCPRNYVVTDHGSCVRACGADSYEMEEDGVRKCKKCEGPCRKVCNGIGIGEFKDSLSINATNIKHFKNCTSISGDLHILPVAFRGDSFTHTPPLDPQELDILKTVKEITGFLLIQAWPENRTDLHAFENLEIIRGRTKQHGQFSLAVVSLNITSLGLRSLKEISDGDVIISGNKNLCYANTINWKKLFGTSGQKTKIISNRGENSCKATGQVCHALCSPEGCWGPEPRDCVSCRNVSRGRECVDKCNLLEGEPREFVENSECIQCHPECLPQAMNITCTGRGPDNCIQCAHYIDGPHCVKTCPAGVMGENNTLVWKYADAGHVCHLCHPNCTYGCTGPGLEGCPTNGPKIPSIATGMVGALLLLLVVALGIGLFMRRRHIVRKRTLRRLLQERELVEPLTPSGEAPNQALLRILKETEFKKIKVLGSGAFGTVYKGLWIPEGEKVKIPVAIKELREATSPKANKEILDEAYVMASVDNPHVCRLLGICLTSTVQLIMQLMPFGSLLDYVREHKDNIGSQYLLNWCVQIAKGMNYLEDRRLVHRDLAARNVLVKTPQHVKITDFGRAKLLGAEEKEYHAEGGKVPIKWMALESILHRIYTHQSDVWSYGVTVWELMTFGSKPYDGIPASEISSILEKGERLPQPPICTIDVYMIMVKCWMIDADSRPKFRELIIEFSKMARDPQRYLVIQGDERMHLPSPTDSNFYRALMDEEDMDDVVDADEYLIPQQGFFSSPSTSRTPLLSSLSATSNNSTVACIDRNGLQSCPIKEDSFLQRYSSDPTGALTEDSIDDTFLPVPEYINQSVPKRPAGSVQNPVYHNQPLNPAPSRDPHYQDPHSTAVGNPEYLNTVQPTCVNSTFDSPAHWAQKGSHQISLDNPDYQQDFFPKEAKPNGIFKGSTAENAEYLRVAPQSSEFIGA

IC50 (EGFR L858R/T790M/C797S; [1]) [nM]	IC50 (EGFR L858R/T790M/C797S; [2]) [nM]	IC50 (EGFR del19/C797S; [3]) [nM]	IC50 (EGFR del19/C797S; [4]) [nM]	IC50 (EGFR del19/T790M/C797S; [5]) [nM]	IC50 (EGFR del19/T790M/C797S; [6]) [nM]	IC50 (EGFR wildtype (WT); [7]) [nM]	IC50 (EGFR wildtype (WT); [8]) [nM]	IC50 (EGFR L858R/C797S; [9]) [nM]	IC50 (EGFR L858R/C797S; [10]) [nM]	IC50 (EGFR L858R/T790M/C797S; [11]) [nM]	IC50 (EGFR del19/C797S; [12]) [nM]	IC50 (EGFR del19/T790M/C797S; [13]) [nM]	IC50 (EGFR wildtype (WT); [14]) [nM]	IC50 (EGFR L858R/C797S; [15]) [nM]	Structure (SMILES)
0.3	0.1	0.5	0.1	0.3	0.3	370	0.6	0.7	0.1						O=S(=O)(C1CC1)n1cc(-c2nccc(Nc3cc(N[C@H]4CC[C@@H](CO)CC4)c(-c4ccn(C5COC5)n4)cn3)n2)cn1 [Example 282, ((1s,4s)-4-((2-((2-(1-(Cyclopropylsulfonyl)-1H-pyrazol-4-yl)pyrimidin-4-yl)amino)-5-(1-(oxetan-3-yl)-1H-pyrazol-3-yl)pyridin-4-yl)amino)cyclohexyl)methanol]
1.4	0.5		0.5	1	0.5	> 10000	7	13.5	0.7						O=S(=O)(C1CC1)n1cc(-c2nccc(Nc3cc(NCC4CCC(O)C4)c(-c4ccn(C(F)F)n4)cn3)n2)cn1 (stereo not shown) [Example 33, 3-(((2-((2-(1-(Cyclopropylsulfonyl)-1H-pyrazol-4-yl)pyrimidin-4-yl)amino)-5-(1-(difluoromethyl)-1H-pyrazol-3-yl)pyridin-4-yl)amino)methyl)cyclopentan-1-ol]
	2.3		20.2		2.8		74.8		10.4						Cc1nn(CC(F)F)c(C)c1-c1nccc(Nc2cc(N[C@H]3CC[C@@](C)(O)CC3)c(-c3ccn(C(F)F)n3)cn2)n1 [Example 321, (1s,4s)-4-((2-((2-(1-(2,2-Difluoroethyl)-3,5-dimethyl-1H-pyrazol-4-yl)pyrimidin-4-yl)amino)-5-(1-(difluoromethyl)-1H-pyrazol-3-yl)pyridin-4-yl)amino)-1-methylcyclohexan-1-ol]
	2.3		1260		3		6830		884						COc1ccc(-c2nccc(Nc3cc(N[C@H]4CC[C@@](C)(O)CC4)c(-c4ccn(C(F)F)n4)cn3)n2)cn1 [Example 165, (1s,4s)-4-((5-(1-(Difluoromethyl)-1H-pyrazol-3-yl)-2-((2-(6-methoxypyridin-3-yl)pyrimidin-4-yl)amino)pyridin-4-yl)amino)-1-methylcyclohexan-1-ol]
	0.8		32.6		1.3		44.8		0.5						CC(C)(O)[C@H]1CC[C@@H](Nc2cc(Nc3ccnc(-c4cnn(S(=O)(=O)C5CC5)c4)n3)ncc2-c2ccn(CCC(F)(F)F)n2)CC1 [Example 300, 2-((1s,4s)-4-((2-((2-(1-(Cyclopropylsulfonyl)-1H-pyrazol-4-yl)pyrimidin-4-yl)amino)-5-(1-(3,3,3-trifluoropropyl)-1H-pyrazol-3-yl)pyridin-4-yl)amino)cyclohexyl)propan-2-ol]
										4.3	404	3.4	4270	665	CC(C)Nc1nc(Nc2ccnc(-c3cnn(S(=O)(=O)C4CC4)c3)c2)ncc1-c1ccn(C(F)F)n1 [Example 363, N^2-(2-(1-(Cyclopropylsulfonyl)-1H-pyrazol-4-yl)pyridin-4-yl)-5-(1-(difluoromethyl)-1H-pyrazol-3-yl)-N^4-isopropylpyrimidine-2,4-diamine]
7.7		10		2.6		> 10000		103							CC(C)Nc1cc(Nc2ccnc(-c3cnn(S(=O)(=O)C4CC4)c3)n2)ncc1-c1csc(C(C)(C)O)n1 [Example 92, 2-(4-(6-((2-(1-(Cyclopropylsulfonyl)-1H-pyrazol-4-yl)pyrimidin-4-yl)amino)-4-(isopropylamino)pyridin-3-yl)thiazol-2-yl)propan-2-ol]
										4.8	653	7.3	457	105	C[C@]1(O)CC[C@@H](Nc2cc(Nc3ccnc(N4CCC[C@@H](O)C4)n3)ncc2-c2ccn(C(F)F)n2)CC1 [Example 352, (R)-1-(4-((5-(1-(Difluoromethyl)-1H-pyrazol-3-yl)-4-(((1s,4S)-4-hydroxy-4-methylcyclohexyl)amino)pyridin-2-yl)amino)pyrimidin-2-yl)piperidin-3-ol]
0.2	0.1	0.8	0.4	0.2	0.5	6970		6.6	0.1						C[C@]1(O)CC[C@@H](Nc2cc(Nc3ccnc(-c4cnn(S(=O)(=O)C5CC5)c4)n3)ncc2-c2ccn(C3COC3)n2)CC1 [Example 292, (1s,4s)-4-((2-((2-(1-(Cyclopropylsulfonyl)-1H-pyrazol-4-yl)pyrimidin-4-yl)amino)-5-(1-(oxetan-3-yl)-1H-pyrazol-3-yl)pyridin-4-yl)amino)-1-methylcyclohexan-1-ol]
0.2	0.1	0.3	0.2	0.4	0.3	38.9	0.2	0.2	0.1						CN(C)C[C@H]1CC[C@@H](Nc2cc(Nc3ccnc(-c4cnn(S(=O)(=O)C5CC5)c4)n3)ncc2-c2cc(C(C)(C)O)n(C)n2)CC1 [Example 302, 2-(3-(6-((2-(1-(Cyclopropylsulfonyl)-1H-pyrazol-4-yl)pyrimidin-4-yl)amino)-4-(((1s,4s)-4-((dimethylamino)methyl)cyclohexyl)amino)pyridin-3-yl)-1-methyl-1H-pyrazol-5-yl)propan-2-ol]
0.2	0.1	0.2	0.2	0.2	0.2	> 10000	1	0.8	0.2						Cn1ccc(-c2cnc(Nc3ccnc(-c4cnn(S(=O)(=O)C5CC5)c4)n3)cc2N[C@H]2CC[C@]3(CCC(=O)N3)CC2)n1 [Example 44, (5s,8s)-8-((2-((2-(1-(Cyclopropylsulfonyl)-1H-pyrazol-4-yl)pyrimidin-4-yl)amino)-5-(1-methyl-1H-pyrazol-3-yl)pyridin-4-yl)amino)-1-azaspiro[4.5]decan-2-one]
										0.1	12.8	0.2	159	5	C[C@]1(O)CC[C@@H](Nc2nc(Nc3ccnc(-c4cnn(CC(F)F)c4)c3)ncc2-c2ccn(C(F)F)n2)CC1 [Example 362, (1s,4s)-4-((2-((2-(1-(2,2-Difluoroethyl)-1H-pyrazol-4-yl)pyridin-4-yl)amino)-5-(1-(difluoromethyl)-1H-pyrazol-3-yl)pyrimidin-4-yl)amino)-1-methylcyclohexan-1-ol]
	2.2		178		9.5		538		14.5						CN(C)S(=O)(=O)n1ccc(-c2nccc(Nc3cc(N[C@H]4CC[C@@](C)(O)CC4)c(-c4ccn(C(F)F)n4)cn3)n2)c1 [Example 109, 3-(4-((5-(1-(Difluoromethyl)-1H-pyrazol-3-yl)-4-(((1s,4s)-4-hydroxy-4-methylcyclohexyl)amino)pyridin-2-yl)amino)pyrimidin-2-yl)-N,N-dimethyl-1H-pyrrole-1-sulfonamide]
1.4	0.5	122	10.3	1.4	0.6	> 10000	50.1	8.7	4.6						O=S(=O)(C1CC1)n1cc(-c2nccc(Nc3cc(N[C@H]4CCC[C@H](CO)C4)c(-c4ccn(CC(F)(F)F)n4)cn3)n2)cn1 [Example 271, ((1S,3S)-3-((2-((2-(1-(Cyclopropylsulfonyl)-1H-pyrazol-4-yl)pyrimidin-4-yl)amino)-5-(1-(2,2,2-trifluoroethyl)-1H-pyrazol-3-yl)pyridin-4-yl)amino)cyclohexyl)methanol]
	0.5	3.3	2.7	1	1	> 10000	42.9	21							CC(C)c1cc(-c2cnc(Nc3ccnc(-c4cnn(S(=O)(=O)C5CC5)c4)n3)cc2N[C@H]2CC[C@@](C)(O)CC2)on1 [Example 64, (1s,4s)-4-((2-((2-(1-(Cyclopropylsulfonyl)-1H-pyrazol-4-yl)pyrimidin-4-yl)amino)-5-(3-isopropylisoxazol-5-yl)pyridin-4-yl)amino)-1-methylcyclohexan-1-ol]
